According to patent publication US4965280A, “Antifungal carbinols” (E. I. Du Pont de Nemours and Company, priority 1989, dated 1990):

Tests used:
Assay in all cases: Test E
SNTLS CHAMOMILE = assay type: in vivo, Matricaria indora
PERSN SPEEDWELL = assay type: in vivo, Veronica persica
CTCHWD BEDSTRAW = assay type: in vivo, Galium aparine
KOCHIA = assay type: in vivo, Kochia scoparia
REDROOT PIGWEED = assay type: in vivo, Amaranthus retroflexus
LAMBSQUARTER = assay type: in vivo, Chenopodium album
WILD BUCKWHEAT = assay type: in vivo, Polygonum convolvulus
ITALN. RYEGRASS = assay type: in vivo, Lolium multiflorum
GREEN FOXTAIL = assay type: in vivo, Setaria viridis

Measured: plant response

C=C(c1ccc(Cl)cc1Cl)C(O)(Cn1cncn1)c1ccccc1F (stereo not drawn) [Example 107]
100%: PERSN SPEEDWELL; PREEMERGENCE 0250 GM/HA | REDROOT PIGWEED; PREEMERGENCE 0250 GM/HA | GREEN FOXTAIL; PREEMERGENCE 0250 GM/HA
90%: LAMBSQUARTER; PREEMERGENCE 0250 GM/HA
0%: CTCHWD BEDSTRAW; PREEMERGENCE 0250 GM/HA | KOCHIA; PREEMERGENCE 0250 GM/HA | WILD BUCKWHEAT; PREEMERGENCE 0250 GM/HA | ITALN. RYEGRASS; PREEMERGENCE 0250 GM/HA
70%: SNTLS CHAMOMILE; PREEMERGENCE 0250 GM/HA

C=C(c1ccccc1)C(O)(Cn1cncn1)c1ccc(Cl)cc1 (stereo not drawn) [Example 51, 2-(4-Chlorophenyl)-3-phenyl-1-(1H-1,2,4-triazol-1-yl)-3-buten-2-ol]
40%: SNTLS CHAMOMILE; POSTEMERGENCE 0250 GM/HA | PERSN SPEEDWELL; POSTEMERGENCE 0500 GM/HA | LAMBSQUARTER; POSTEMERGENCE 0500 GM/HA
0%: SNTLS CHAMOMILE; POSTEMERGENCE 0064 GM/HA | PERSN SPEEDWELL; POSTEMERGENCE 0064 GM/HA | PERSN SPEEDWELL; POSTEMERGENCE 0125 GM/HA | CTCHWD BEDSTRAW; POSTEMERGENCE 0064 GM/HA | CTCHWD BEDSTRAW; POSTEMERGENCE 0125 GM/HA | CTCHWD BEDSTRAW; POSTEMERGENCE 0250 GM/HA | CTCHWD BEDSTRAW; PREEMERGENCE 0500 GM/HA | KOCHIA; POSTEMERGENCE 0064 GM/HA | KOCHIA; POSTEMERGENCE 0125 GM/HA | KOCHIA; POSTEMERGENCE 0250 GM/HA | KOCHIA; POSTEMERGENCE 0500 GM/HA | LAMBSQUARTER; POSTEMERGENCE 0064 GM/HA | LAMBSQUARTER; POSTEMERGENCE 0125 GM/HA | WILD BUCKWHEAT; POSTEMERGENCE 0064 GM/HA | WILD BUCKWHEAT; POSTEMERGENCE 0125 GM/HA | WILD BUCKWHEAT; POSTEMERGENCE 0250 GM/HA | WILD BUCKWHEAT; POSTEMERGENCE 0500 GM/HA | WILD BUCKWHEAT; PREEMERGENCE 0500 GM/HA | ITALN. RYEGRASS; POSTEMERGENCE 0064 GM/HA | ITALN. RYEGRASS; POSTEMERGENCE 0500 GM/HA | ITALN. RYEGRASS; PREEMERGENCE 0500 GM/HA | GREEN FOXTAIL; POSTEMERGENCE 0064 GM/HA | GREEN FOXTAIL; POSTEMERGENCE 0125 GM/HA | GREEN FOXTAIL; POSTEMERGENCE 0250 GM/HA | GREEN FOXTAIL; POSTEMERGENCE 0500 GM/HA
90%: REDROOT PIGWEED; POSTEMERGENCE 0500 GM/HA
30%: REDROOT PIGWEED; POSTEMERGENCE 0064 GM/HA
100%: SNTLS CHAMOMILE; PREEMERGENCE 0500 GM/HA | LAMBSQUARTER; PREEMERGENCE 0500 GM/HA | GREEN FOXTAIL; PREEMERGENCE 0500 GM/HA
20%: SNTLS CHAMOMILE; POSTEMERGENCE 0125 GM/HA | PERSN SPEEDWELL; POSTEMERGENCE 0250 GM/HA | PERSN SPEEDWELL; PREEMERGENCE 0500 GM/HA | LAMBSQUARTER; POSTEMERGENCE 0250 GM/HA | ITALN. RYEGRASS; POSTEMERGENCE 0125 GM/HA | ITALN. RYEGRASS; POSTEMERGENCE 0250 GM/HA
70%: KOCHIA; PREEMERGENCE 0500 GM/HA | REDROOT PIGWEED; PREEMERGENCE 0500 GM/HA
60%: SNTLS CHAMOMILE; POSTEMERGENCE 0500 GM/HA | REDROOT PIGWEED; POSTEMERGENCE 0250 GM/HA
50%: CTCHWD BEDSTRAW; POSTEMERGENCE 0500 GM/HA | REDROOT PIGWEED; POSTEMERGENCE 0125 GM/HA
